Assay results published in PMC7221826, “5-Oxo-hexahydroquinoline Derivatives and Their Tetrahydroquinoline Counterparts as Multidrug Resistance Reversal Agents” (Molecules, 2020).
“Also recorded” adds a separate entry of the source. Where two headings read alike, the source gives them in different places.

Experiments:
P-gp = biological target: T1, P-gp (Homo sapiens, UniProt P08183); test: MDR reversal assay: flow cytometric detection of Rhodamine123 efflux/accumulation in MES-SA-DX5 cells; type: cell-based; details: compounds at 5, 10 and 25 µM, 5 µM Rh123
T1 construct: MES-SA-DX5 is a resistant cell line, which overexpresses P-gp as a result of constant exposure to doxorubicin; host or cells: MES-SA-DX5 human uterine sarcoma cells
Method: Rhodamine 123 (Rh123) is a well-known substrate of P-gp and it is readily pumped out of the cells by this ABC transporter. The amount of retained Rh123 in the cells indicates the efflux function of the target transporter. Flow cytometric analysis was used for assessment of intracellular Rh123 as previously described.
Briefly, a suspension of the multidrug resistant uterine sarcoma MES-SA-DX5 cells at a density of 5 × 10^5 cells/mL in growth medium was prepared. Four-hundred microliters (400 µL) of the synthesized compounds with final concentration of 5, 10, and 25 µM were added to 500 µL of the cell suspension. Verapamil was also tested as a positive control. After an incubation of 20 min, 50 µL of Rh123 at a final concentration of 5 µM was added and incubated for further 30 min at 37 °C. The cells were then centrifuged and washed twice with ice-cold PBS, and then resuspended in PBS and kept on ice. Rh123 accumulated in cells was then quantified by a FACSCalibur flow cytometer (Becton Dickinson, San Jose, CA, USA) with excitation and emission wavelengths of 488 and 530 nm, respectively. Geometric means of fluorescence intensity values were determined using Flowing Software (http://flowingsoftware.btk.fi/).
Accumulation of Rhodamine123 (Rh123), caused by inhibition of P-gp-mediated efflux, was determined by flow cytometry in the multidrug resistant uterine sarcoma MES-SA-DX5 cell line. Verapamil was used as a positive control. MES-SA-DX5 is a resistant cell line, which overexpresses P-gp as a result of constant exposure to doxorubicin. Alterations in the amount of the fluorescent Rh123 retained inside the MES-SA-DX5 cells can be plausibly related to the inhibition of the activity of P-gp efflux pump in the cells (Figure 1). The ratio of the geometric mean value of cells treated with synthesized compounds to the geometric mean value of the control untreated cells are show in Figure 2.
Figure 2 MDR reversal assessed by flow cytometric detection of Rhodamine123 efflux in MES-SA-DX5 cells. Cells were suspended in RPMI 1640 and treated with verapamil (Ver, positive control) or synthesized derivatives. After incubation for 20 min, 5 μM Rh123 was added, the cells were incubated for another […] at 37 °C and then centrifuged and washed twice with ice-cold PBS and resuspended in PBS. The fluorescence caused by the presence of Rh123 in cells was measured using a flow cytometer with excitation and emission wavelengths of 488 nm and 530 nm, respectively. The values represent the mean ± S.E.M. of 3–5 experiments. * The difference between treated and controlled cells are statistically significant (p ˂ 0.05).

MES-SA-DX5 cells = test: Cell cycle analysis by propidium iodide (PI)-RNase flow cytometry; type: cell-based, human; design: Sub G1: unit not given here; details: 24 h
Method: The analysis of cells in different phases of cell cycle and sub-G1 was performed using propidium iodide (PI)-RNase assay by flow cytometry. MES-SA-DX5 cells were seeded in 12-well plates (1 × 10^6 cells/well) and treated with different concentrations of synthesized compounds for 24 h. The cells were then collected, washed with PBS, and fixed with 70% ethanol overnight at –20 °C. After at least 24 h, fixed cells were washed with PBS and subsequently stained with a DNA staining solution containing PI 20 μg/mL and RNase 200 μg/mL at room temperature for 30 min in the dark. Twenty thousand cells of each sample were analyzed using a BD FACSCalibur flow cytometer (BD Biosciences, USA) and the amount of the cells in sub-G1, G0/G1, S, and G2/M phases were estimated using CellQuest (Becton Dickinson, San Jose, CA, USA) software.
Therefore, it could be concluded that these compounds cause cytotoxicity in drug resistant MES-SA-DX5 cells by induction of apoptosis in these cells.
Figure 3 Effect of synthesized derivatives on cell cycle alterations in MES-SA-DX5 drug resistant cells. The cells in different phases of cell cycle were monitored using propidium iodide (PI)-RNase assay by flow cytometry. MES-SA-DX5 cells were seeded in 12-well plates (1 × 10^6 cells/well) and treated with different concentrations of synthesized compounds for 24 h. The cells were then collected, washed with PBS and fixed with 70% ethanol overnight at –20 °C. After at least 24 h, fixed cells were washed with PBS and subsequently stained with a DNA staining solution containing PI 20 μg/mL and RNase 200 μg/mL at room temperature for 30 min in the dark. Twenty thousand cells of each sample were analyzed using a FACS Calibur flow cytometer (BD Biosciences, USA). Representative histograms of cells treated with synthesized compounds are shown. An increase in sub-G1 phase cells could be observed after treatment with A1, A2, B1, and B2 compounds.

MCF-7 = test: MTT cell viability assay, MCF-7; type: cell-based, human; details: Homo sapiens, MCF7, 72 h, read-out: IC50 (µM) in Cultured Cells MCF-7
Description: (§1) Cell lines used for cytotoxicity assays included MCF-7 (human breast adenocarcinoma), A549 (human lung adenocarcinoma), K562 (human chronic myelogenous leukemia) and HEK-293 (human embryonic kidney) cells and were obtained from the Iranian Biological Resource Center, Tehran, Iran. MES-SA-DX5 multidrug resistant human uterine sarcoma, over-expressing P-gp and their parental non-resistant MES-SA cell lines were purchased from Sigma-Aldrich (St. Louis, MO, USA). All cells, except for HEK-293, were cultured in RPMI 1640 supplemented with 10% FBS and 100 units/mL penicillin-streptomycin at 37 °C in humidified air containing 5% CO2. HEK-293 cells were maintained in DMEM-F12 medium containing L-glutamine 2 mM supplemented with FBS and penicillin-streptomycin. MES-SA-DX5 cells were maintained in media containing 100 nM doxorubicin in order to ensure that only drug-resistant cells continue to grow.
(§2) Cytotoxicity of the test compounds were evaluated by MTT assay. In this method, reduction of MTT, a yellow tetrazolium salt to the purple formazan, by cellular dehydrogenase enzymes is determined as an index of cell viability. Cancer cells were seeded into 96-well plates (3–5 × 10^3 cells/well) and incubated for 24 h at 37 °C. Afterwards, four different concentrations of synthesized derivatives were added in triplicate and the cells were incubated at 37 °C for another 72 h, after which the media was replaced with MTT solution at a concentration of 0.5 mg/mL was added for MTT assay. After another 4h, formazan crystals were dissolved in 200 μL DMSO for 90 min and absorbance was measured at a wavelength of 570 nm with background correction at 650 nm using a microplate reader (model 680, Bio-Rad, Hercules, CA, USA) and IC50 for each compound was calculated with CurveExpert version 1.34 for Windows.

A-549 = test: MTT cell viability assay, A-549; type: cell-based, human; details: Homo sapiens, A549, 72 h, read-out: IC50 (µM) in Cultured Cells A-549
Description: as §1, §2

K562 = test: MTT cell viability assay, K562; type: cell-based, human; details: Homo sapiens, K562, 72 h, read-out: IC50 (µM) in Cultured Cells K562
Description: as §1, §2

MES-SA-DX5 = test: MTT cell viability assay, MES-SA-DX5; type: cell-based, human; details: Homo sapiens, MES-SA/Dx5, 72 h, multidrug resistant, P-gp overexpressing, read-out: IC50 (µM) in Cultured Cells MES-SA-DX5
Description: as §1, §2

MES-SA = test: MTT cell viability assay, MES-SA; type: cell-based, human; details: MTT; for IC50: Homo sapiens, MES-SA, 72 h, parental non-resistant, read-out: IC50 (µM) in Cultured Cells MES-SA
Description: as §1, §2

HEK-293 = test: MTT cell viability assay, HEK-293; type: cell-based, human; details: non-cancerous, read-out: IC50 (µM) in Cultured Cells HEK-293
Description: as §1, §2

T1 sequence (P08183 whole entry): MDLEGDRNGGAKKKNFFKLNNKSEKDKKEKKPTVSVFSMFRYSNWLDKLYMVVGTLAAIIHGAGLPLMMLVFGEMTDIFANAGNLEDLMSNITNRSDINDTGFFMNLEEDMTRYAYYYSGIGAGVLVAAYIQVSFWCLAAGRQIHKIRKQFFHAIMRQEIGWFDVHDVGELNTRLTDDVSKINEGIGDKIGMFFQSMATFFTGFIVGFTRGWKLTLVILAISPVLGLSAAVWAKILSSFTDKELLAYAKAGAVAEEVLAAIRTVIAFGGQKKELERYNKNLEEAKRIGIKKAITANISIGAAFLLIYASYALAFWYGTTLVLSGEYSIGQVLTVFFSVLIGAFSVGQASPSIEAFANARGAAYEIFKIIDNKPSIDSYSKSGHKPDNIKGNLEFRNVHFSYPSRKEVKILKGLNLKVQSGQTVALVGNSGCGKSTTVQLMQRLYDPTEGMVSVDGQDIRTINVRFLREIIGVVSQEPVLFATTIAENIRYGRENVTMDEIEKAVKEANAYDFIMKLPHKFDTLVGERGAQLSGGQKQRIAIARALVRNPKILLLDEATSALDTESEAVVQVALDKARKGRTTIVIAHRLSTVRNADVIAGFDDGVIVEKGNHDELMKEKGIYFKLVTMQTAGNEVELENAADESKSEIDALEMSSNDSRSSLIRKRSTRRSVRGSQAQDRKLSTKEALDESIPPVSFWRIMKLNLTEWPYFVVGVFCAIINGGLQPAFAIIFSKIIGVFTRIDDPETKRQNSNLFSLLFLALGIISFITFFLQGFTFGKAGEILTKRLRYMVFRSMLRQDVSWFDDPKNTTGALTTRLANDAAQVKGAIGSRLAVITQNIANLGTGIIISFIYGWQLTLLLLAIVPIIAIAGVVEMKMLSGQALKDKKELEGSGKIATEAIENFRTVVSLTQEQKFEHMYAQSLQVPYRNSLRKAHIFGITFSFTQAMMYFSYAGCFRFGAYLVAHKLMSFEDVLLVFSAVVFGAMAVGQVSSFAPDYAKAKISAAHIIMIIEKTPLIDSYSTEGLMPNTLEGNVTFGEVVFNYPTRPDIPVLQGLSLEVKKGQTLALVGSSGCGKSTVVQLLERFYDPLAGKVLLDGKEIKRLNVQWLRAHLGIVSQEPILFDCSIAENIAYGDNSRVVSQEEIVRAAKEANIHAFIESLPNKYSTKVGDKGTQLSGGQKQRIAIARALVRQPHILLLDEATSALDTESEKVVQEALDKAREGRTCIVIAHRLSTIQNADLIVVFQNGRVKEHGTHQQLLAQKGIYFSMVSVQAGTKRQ

Compound	P-gp inhibitory activity (Rh123 accumulation) (P-gp)	G0/G1 (MES-SA-DX5 cells; 10 µM)	G2/M (MES-SA-DX5 cells; 10 µM)	S (MES-SA-DX5 cells; 10 µM)	Sub G1 (MES-SA-DX5 cells; 10 µM)	G0/G1 (MES-SA-DX5 cells; 25 µM)	G2/M (MES-SA-DX5 cells; 25 µM)	S (MES-SA-DX5 cells; 25 µM)	Sub G1 (MES-SA-DX5 cells; 25 µM)	S (MES-SA-DX5 cells; 100 µM)	IC50 (MCF-7)	IC50 (A-549)	IC50 (K562)	IC50 (MES-SA-DX5)	IC50 (MES-SA)	IC50 (HEK-293; Homo sapiens, HEK293, 72 h)	melting point	G0/G1 (MES-SA-DX5 cells; 100 µM)	G2/M (MES-SA-DX5 cells; 100 µM)	effect against parental non-resistant MES-SA cells (MES-SA)	also measured
CC1=C(C(=O)Nc2csc(C)n2)C(c2ccc(Cl)cc2Cl)C2=C(CCCC2=O)N1 (stereo not shown) [Compound A1, 4-(2,4-Dichlorophenyl)-2-methyl-N-(2-methylthiazol-4-yl)-5-oxo-1,4,5,6,7,8-hexahydroquinoline-3-carboxamide]	significantly blocked P-gp efflux; also recorded: highest P-gp inhibitory activities	52.32 ± 1.8	25.12 ± 1.7	21.85 ± 1.0	0.61 ± 0.2	53.30 ± 0.9	25.01 ± 0.7	20.96 ± 1.2	0.71 ± 0.2	21.12 ± 1.6	72.5 ± 11.9 µM	48.8 ± 1.3 µM	15 ± 0.5 µM	40.1 ± 4.7 µM	64.1 ± 19.4 µM	28.6 ± 4.3 µM	195 °C	–	–	–	–
CC1=C(C(=O)Nc2csc(C)n2)C(c2ccc(Br)cc2)C2=C(CCCC2=O)N1 (stereo not shown) [Compound A2, 4-(4-Bromophenyl)-2-methyl-N-(2-methylthiazol-4-yl)-5-oxo-1,4,5,6,7,8-hexahydroquinoline-3-carboxamide]	significantly blocked P-gp efflux; also recorded: highest P-gp inhibitory activities	56.45 ± 1.1	23.45 ± 0.2	18.90 ± 0.2	1.21 ± 0.7	59.47 ± 3.0	20.23 ± 0.7	18.53 ± 1.7	1.71 ± 1.1	19.27 ± 0.3	56.7 ± 3.6 µM	87.1 ± 6.7 µM	31 ± 2.7 µM	31.5 ± 1.5 µM	> 100 µM	> 50 µM	273 °C	50.57 ± 2.8	18.37 ± 2.6	did not show any effect	IC50 (HEK-293; 72 h): 63.1 ± 7.4 µM
Cc1nc(NC(=O)c2c(C)nc3c(c2-c2ccc(Cl)cc2Cl)C(=O)CCC3)cs1 [Compound B1, 4-(2,4-Dichlorophenyl)-2-methyl-N-(2-methylthiazol-4-yl)-5-oxo-5,6,7,8-tetrahydroquinoline-3-carboxamide]	significantly blocked P-gp efflux	49.10 ± 3.7	29.03 ± 2.1	21.27 ± 2.1	0.64 ± 0.1	51.13 ± 2.4	27.03 ± 0.6	20.90 ± 2.0	0.91 ± 0.0	25.17 ± 0.7	47.1 ± 2.1 µM	60 ± 3 µM	6.7 ± 0.6 µM	39.8 ± 1.6 µM	55.6 ± 2.4 µM	39.9 ± 5.4 µM	248 °C	–	–	–	–
Cc1nc(NC(=O)c2c(C)nc3c(c2-c2ccc(Br)cc2)C(=O)CCC3)cs1 [Compound B2, 4-(4-Bromophenyl)-2-methyl-N-(2-methylthiazol-4-yl)-5-oxo-5,6,7,8-tetrahydroquinoline-3-carboxamide]	significantly blocked P-gp efflux; also recorded: highest P-gp inhibitory activities	53.00 ± 3.6	24.13 ± 2.4	21.80 ± 1.5	0.96 ± 0.1	55.83 ± 2.6	22.23 ± 1.4	20.30 ± 1.7	1.57 ± 0.4	19.48 ± 1.8	77.7 ± 8.7 µM	86.8 ± 5 µM	10.1 ± 1.5 µM	43.6 ± 2.8 µM	> 100 µM	> 50 µM	261 °C	47.00 ± 0.6	29.27 ± 1.8	did not show any effect	–
Cc1nc(NC(=O)c2c(C)nc3c(c2-c2ccc(Cl)cc2)C(=O)CCC3)cs1 [Compound B5, 4-(4-Chlorophenyl)-2-methyl-N-(2-methylthiazol-4-yl)-5-oxo-5,6,7,8-tetrahydroquinoline-3-carboxamide]	–	53.87 ± 0.7	27.27 ± 2.6	18.13 ± 1.9	0.62 ± 0.1	55.43 ± 1.3	26.07 ± 2.7	17.73 ± 1.3	0.69 ± 0.1	13.62 ± 0.8	89.5 ± 3.5 µM	91 ± 4.6 µM	10.4 ± 1.5 µM	62.3 ± 5.5 µM	> 100 µM	> 50 µM	251 °C	57.58 ± 0.9	26.87 ± 0.9	–	IC50 (HEK-293; 72 h): 64.2 ± 1.1 µM
